pIC50: −log10 of the molar value.
molecular target: T1, Axl (Homo sapiens, UniProt P30530); experiment: Axl NanoBRET intracellular kinase assay (intracellular binding, Cell Binding); set-up: host or cells: HEK-293; details: HEK-293 cells transfected with Axl-NanoLuc fusion vector; 0.35 μM K-5 NanoBRET tracer
T1 sequence (P30530 26-894): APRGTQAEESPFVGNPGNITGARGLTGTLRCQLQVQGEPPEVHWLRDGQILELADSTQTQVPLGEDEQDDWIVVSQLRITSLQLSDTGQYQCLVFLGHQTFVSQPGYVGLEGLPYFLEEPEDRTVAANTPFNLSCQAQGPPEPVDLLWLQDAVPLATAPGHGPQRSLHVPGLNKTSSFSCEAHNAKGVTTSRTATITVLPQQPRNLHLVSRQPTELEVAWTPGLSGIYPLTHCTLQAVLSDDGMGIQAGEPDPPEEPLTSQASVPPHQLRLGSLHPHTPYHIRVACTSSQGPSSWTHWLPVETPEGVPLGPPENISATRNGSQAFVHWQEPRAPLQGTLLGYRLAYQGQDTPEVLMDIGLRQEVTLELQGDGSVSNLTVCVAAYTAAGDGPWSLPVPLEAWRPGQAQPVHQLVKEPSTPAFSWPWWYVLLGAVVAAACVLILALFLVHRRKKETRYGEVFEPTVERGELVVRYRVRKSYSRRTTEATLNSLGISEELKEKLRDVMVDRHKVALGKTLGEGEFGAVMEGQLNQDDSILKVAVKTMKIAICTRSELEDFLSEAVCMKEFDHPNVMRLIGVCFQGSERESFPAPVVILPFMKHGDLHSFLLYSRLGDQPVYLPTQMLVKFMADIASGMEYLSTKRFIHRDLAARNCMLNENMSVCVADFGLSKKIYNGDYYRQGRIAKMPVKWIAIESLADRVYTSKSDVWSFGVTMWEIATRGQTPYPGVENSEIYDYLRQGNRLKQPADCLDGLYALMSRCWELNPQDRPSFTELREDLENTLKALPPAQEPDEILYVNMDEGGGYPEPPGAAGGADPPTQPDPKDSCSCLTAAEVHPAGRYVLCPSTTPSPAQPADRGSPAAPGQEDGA
Method: Axl NanoBRET™ intracellular kinase assay (Promega, N2540) was performed according to manufacturer's recommendation. In brief, HEK-293 cells are transiently transfected with Axl-NanoLuc fusion vector (Promega, NV1071), utilizing Fugene HD transfection reagent (Promega, E2311) a day before experiment following manufacturer's recommendation.
The day of the assay, the cells were collected and resuspended in Opti-MEM media (ThermoFisher, 31985070) at 2e5 cells/mL concentration. Testing compounds were serial diluted and dispensed into a white 384 well polystyrene plate at 200 nL in 100% DMSO. 40 μL of resuspended cells is then added per well for a final condition of 8K cells/well with 0.5% DMSO. After one-hour compound pre-incubation at 37° C. and 5% CO2, cells were further incubated with 0.35 μM K-5 NanoBRET tracer for two-hours at 37° C. and 5% CO2. […] of 3× substrate plus Inhibitor solution was prepared according to kits manual and added to the cells followed by a 30 second pulse centrifugation spin. The plate was then immediately read utilizing an Envision (Perkin Elmer) plate reader. The BRET signal is measured by taking the ratio of the emissions reading at 610 nm and 450 nm. Compound binding is based on the decrease BRET signal caused by the displacement of the K-5 tracer. […] IC50 value of compounds was determined by 4-parameter non-linear regression fitting of percent activity in GraphPad Prism software.

| Compound | pIC50 |
| --- | --- |
| CC1(N2CCC[C@H]2CO)CCc2ccc(-c3cnc4[nH]nc(-c5ccc(S(=O)(=O)C6CC6)cc5)c4c3)cc2CC1 (stereo partly drawn) [Example 4, [(2S)-1-(2-{3-[4-(Cyclopropanesulfonyl)phenyl]-1H-pyrazolo[3,4-b]pyridin-5-yl}-7-methyl-6,7,8,9-tetrahydro-5H-benzo[7]annulen-7-yl)pyrrolidin-2-yl]methanol] | > 7.00 |
| CCC1(N2CCC[C@H]2C)CCc2ccc(-c3cnc4[nH]nc(-c5ccc(S(=O)(=O)C6CC6)cc5)c4c3)cc2CC1 (stereo partly drawn) [Example 6, (2R)-1-(2-{3-[4-(Cyclopropanesulfonyl)phenyl]-1H-pyrazolo[3,4-b]pyridin-5-yl}-7-ethyl-6,7,8,9-tetrahydro-5H-benzo[7]annulen-7-yl)-2-methylpyrrolidine] | 6.00 to 7.00 |
| CC1(N2CCC2)CCc2ccc(-c3cnc4[nH]nc(-c5ccc(S(=O)(=O)C6CC6)cc5)c4c3)cc2CC1 (centres unmarked) [Example 7, 1-(2-{3-[4-(Cyclopropanesulfonyl)phenyl]-1H-pyrazolo[3,4-b]pyridin-5-yl}-7-methyl-6,7,8,9-tetrahydro-5H-benzo[7]annulen-7-yl)azetidine] | > 7.00 |
| C[C@@H]1CCCN1C1(C)CCc2ccc(-c3cnc4[nH]nc(-c5ccc(S(=O)(=O)C(F)(F)F)cc5)c4c3)cc2CC1 (stereo partly drawn) [Example 8, (2R)-2-Methyl-1-{7-methyl-2-[3-(4-trifluoromethanesulfonylphenyl)-1H-pyrazolo[3,4-b]pyridin-5-yl]-6,7,8,9-tetrahydro-5H-benzo[7]annulen-7-yl}pyrrolidine] | < 6.00 |
| CC(C)(O)c1ccc(-c2n[nH]c3ncc(-c4ccc5c(c4)CCC(N4CCCC4)CC5)cc23)cc1Cl (centres unmarked) [Example 11, 2-(2-Chloro-4-{5-[7-(pyrrolidin-1-yl)-6,7,8,9-tetrahydro-5H-benzo[7]annulen-2-yl]-1H-pyrazolo[3,4-b]pyridin-3-yl}phenyl)propan-2-ol] | > 7.00 |
| CC(C)(O)c1ccc(-c2n[nH]c3ncc(-c4ccc5c(c4)CCN(C4CCCC4)CC5)cc23)cc1Cl [Example 12, 2-{2-Chloro-4-[5-(3-cyclopentyl-2,3,4,5-tetrahydro-1H-3-benzazepin-7-yl)-1H-pyrazolo[3,4-b]pyridin-3-yl]phenyl}propan-2-ol] | 6.00 to 7.00 |

Other lines, results leading:

| pIC50 | Compound |
| --- | --- |
| > 7.00 | C[C@H]1CCCN1C1(C)CCc2ccc(-c3cnc4[nH]nc(-c5ccc(S(=O)(=O)C6CC6)cc5)c4c3)cc2CC1 (stereo partly drawn) [Example 5, (2S)-1-(2-{3-[4-(Cyclopropanesulfonyl)phenyl]-1H-pyrazolo[3,4-b]pyridin-5-yl}-7-methyl-6,7,8,9-tetrahydro-5H-benzo[7]annulen-7-yl)-2-methylpyrrolidine] |
| > 7.00 | CC(C)(O)c1ccc(-c2n[nH]c3ncc(-c4ccc5c(c4)CCC(N4CCCC4)CC5)cc23)cn1 (centres unmarked) [Example 9, 2-(5-{5-[7-(Pyrrolidin-1-yl)-6,7,8,9-tetrahydro-5H-benzo[7]annulen-2-yl]-1H-pyrazolo[3,4-b]pyridin-3-yl}pyridin-2-yl)propan-2-ol] |
| 6.00 to 7.00 | CC(C)(O)c1ccc(-c2n[nH]c3ncc(-c4ccc5c(c4)CCN(C4CCCC4)CC5)cc23)cn1 [Example 10, 2-{5-[5-(3-Cyclopentyl-2,3,4,5-tetrahydro-1H-3-benzazepin-7-yl)-1H-pyrazolo[3,4-b]pyridin-3-yl]pyridin-2-yl}propan-2-ol] |
| 6.00 to 7.00 | CC(C)(O)c1ccc(-c2n[nH]c3ncc(-c4ccc5c(c4)CCN(C4CCCC4)CC5)cc23)cc1C(F)(F)F [Example 16, 2-{4-[5-(3-Cyclopentyl-2,3,4,5-tetrahydro-1H-3-benzazepin-7-yl)-1H-pyrazolo[3,4-b]pyridin-3-yl]-2-(trifluoromethyl)phenyl}propan-2-ol] |
| 6.00 to 7.00 | CC(C)(O)c1ccc(-c2n[nH]c3ncc(-c4ccc5c(c4)CCN(C4CCCC4)CC5)cc23)c(F)c1 [Example 17, 2-{4-[5-(3-Cyclopentyl-2,3,4,5-tetrahydro-1H-3-benzazepin-7-yl)-1H-pyrazolo[3,4-b]pyridin-3-yl]-3-fluorophenyl}propan-2-ol] |

Reference: patent US20240246967A1, “AXL COMPOUNDS” (ARCUS BIOSCIENCES, INC., priority 2021, published 2024)
